Values joined by “and” are separate entries in the source; they are usually repeats but may differ in a detail not shown here. Equal values may be shown once. Inconclusive results and toxic doses are left out. The calls were made as follows: active = survival T/C of 150% or more; inactive = T/C below 125% in these data.
Tested on: CD2F1 mice, L1210 leukemia ip, survival T/C
Experiment: NCI In Vivo Anticancer Drug Screen. Data for tumor model L1210 Leukemia (intraperitoneal) in CD2F1 (CDF1) mice
Details: higher = longer survival
Method in brief: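 Each value reflects a quotient of treated over vehicle control outcomes in mice with a transplanted tumor.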

[1] = endpoint: mean survival time, dose: 100.0 mg/kg/injection, schedule: Q01DX009 (ip), vehicle: saline with Tween-80
[2] = endpoint: mean survival time, dose: 200.0 mg/kg/injection, schedule: Q01DX009 (ip), vehicle: saline with Tween-80
[3] = endpoint: mean survival time, dose: 400.0 mg/kg/injection, schedule: Q01DX009 (ip), vehicle: saline with Tween-80
[4] = endpoint: mean survival time, dose: 100.0 mg/kg/injection, schedule: Q04DX003 (ip), vehicle: saline with Tween-80
[5] = endpoint: mean survival time, dose: 200.0 mg/kg/injection, schedule: Q04DX003 (ip), vehicle: saline with Tween-80
[6] = endpoint: mean survival time, dose: 400.0 mg/kg/injection, schedule: Q04DX003 (ip), vehicle: saline with Tween-80
[7] = endpoint: mean survival time, dose: 100.0 mg/kg/injection, schedule: Q04DX003 (ip), vehicle: saline
[8] = endpoint: mean survival time, dose: 200.0 mg/kg/injection, schedule: Q04DX003 (ip), vehicle: saline
[9] = endpoint: mean survival time, dose: 400.0 mg/kg/injection, schedule: Q04DX003 (ip), vehicle: saline
[10] = endpoint: mean survival time, dose: 100.0 mg/kg/injection, schedule: Q04DX003 (ip), vehicle: Klucel (hydroxypropylcellulose) (HPC)
[11] = endpoint: mean survival time, dose: 200.0 mg/kg/injection, schedule: Q04DX003 (ip), vehicle: Klucel (hydroxypropylcellulose) (HPC)
[12] = endpoint: mean survival time, dose: 400.0 mg/kg/injection, schedule: Q04DX003 (ip), vehicle: Klucel (hydroxypropylcellulose) (HPC)
[13] = endpoint: mean survival time, dose: 25.0 mg/kg/injection, schedule: Q01DX009 (ip), vehicle: saline with Tween-80
[14] = endpoint: mean survival time, dose: 50.0 mg/kg/injection, schedule: Q01DX009 (ip), vehicle: saline with Tween-80

Measured: T/C

CN(C)P1(=O)NCC(C(C)(C)C)CO1 (stereo unspecified)
inactive: endpoint: mean survival time, dose: 15.63 mg/kg/injection, schedule: Q01DX001 (ip), vehicle: water 97 % of control | endpoint: mean survival time, dose: 31.25 mg/kg/injection, schedule: Q01DX001 (ip), vehicle: water 97 % of control | endpoint: mean survival time, dose: 62.5 mg/kg/injection, schedule: Q01DX001 (ip), vehicle: water 97 % of control | endpoint: mean survival time, dose: 125.0 mg/kg/injection, schedule: Q01DX001 (ip), vehicle: water 97 % of control | endpoint: mean survival time, dose: 250.0 mg/kg/injection, schedule: Q01DX001 (ip), vehicle: water 101 % of control

CCOC(=O)NC(C)(C)CN(C(=O)OCC)c1ccccc1
inactive: [1] 98 % of control | [2] 124 % of control | [3] 95 % of control

NC(CCC(=O)NC(=O)OCc1ccccc1)C(=O)O (stereo unspecified)
inactive: [4] 93 % of control | [5] 101 % of control | [6] 90 % of control

NNC(=S)Nc1ccccc1
inactive: endpoint: mean survival time, dose: 20.0 mg/kg/injection, schedule: Q04DX003 (ip), vehicle: saline with Tween-80 98 % of control

CC(=O)C(C)N(C)C (stereo unspecified)
inactive: [7] 105 % of control | [8] 100 % of control | [9] 96 % of control

NC(=O)c1csc(C2OC(CO)C(O)C2O)[n+]1[O-] (stereo unspecified)
inactive: endpoint: median survival time, dose: 9.38 mg/kg/injection, schedule: Q01DX005 (ip), vehicle: saline 102 % of control | endpoint: median survival time, dose: 18.75 mg/kg/injection, schedule: Q01DX005 (ip), vehicle: saline 101 % of control | endpoint: median survival time, dose: 37.5 mg/kg/injection, schedule: Q01DX005 (ip), vehicle: saline 103 % of control | endpoint: median survival time, dose: 75.0 mg/kg/injection, schedule: Q01DX005 (ip), vehicle: saline 104 % of control | endpoint: median survival time, dose: 150.0 mg/kg/injection, schedule: Q01DX005 (ip), vehicle: saline 104 % of control

CCCCCCCCCCCCCCCCCCC#N
inactive: [1] 100 % of control | [4] 92 % of control | [2] 96 % of control | [5] 98 % of control | [3] 93 % of control | [6] 95 % of control

CC(=O)N(C)N=Nc1ccc(C(F)(F)F)cc1
inactive: endpoint: mean survival time, dose: 50.0 mg/kg/injection, schedule: Q04DX003 (ip), vehicle: Klucel (hydroxypropylcellulose) (HPC) 97 % of control | [10] 102 % of control | [11] 96 % of control | [12] 105 % of control

C=C1C[C@@H](O)C[C@@]2(C)C[C@@H]3OC(=O)C(=C)[C@@H]3C[C@H]12
inactive: [1] 104 % of control | [2] 111 % of control

COC(=O)c1cc(OC)cc(OC)c1
inactive: endpoint: mean survival time, dose: 100.0 mg/kg/injection, schedule: Q01DX009 (ip), vehicle: other 96 % of control | endpoint: mean survival time, dose: 200.0 mg/kg/injection, schedule: Q01DX009 (ip), vehicle: other 110 % of control | endpoint: mean survival time, dose: 400.0 mg/kg/injection, schedule: Q01DX009 (ip), vehicle: other 91 % of control

CC(=O)OCC1OC(n2c(Cl)nc3c(Cl)nc(N)nc32)C(OC(C)=O)C1OC(C)=O (stereo unspecified)
inactive: endpoint: mean survival time, dose: 100.0 mg/kg/injection, schedule: Q01DX001 (ip), vehicle: saline 100 % of control | endpoint: mean survival time, dose: 200.0 mg/kg/injection, schedule: Q01DX001 (ip), vehicle: saline 100 % of control | endpoint: mean survival time, dose: 400.0 mg/kg/injection, schedule: Q01DX001 (ip), vehicle: saline 97 % of control

O=S(=O)(OC1CCCCC1Cl)c1ccc(Br)cc1 (stereo unspecified)
inactive: [4] 102 % of control | [5] 94 % of control | [6] 94 % of control

Cn1c(=O)c2c(nc(N3CCOCC3)n2CCCNCC(O)c2cc(O)cc(O)c2)n(C)c1=O (stereo unspecified)
inactive: endpoint: mean survival time, dose: 12.5 mg/kg/injection, schedule: Q01DX005 (ip), vehicle: water 100 % of control | endpoint: mean survival time, dose: 25.0 mg/kg/injection, schedule: Q01DX005 (ip), vehicle: water 96 % of control | endpoint: mean survival time, dose: 50.0 mg/kg/injection, schedule: Q01DX005 (ip), vehicle: water 94 % of control | endpoint: mean survival time, dose: 100.0 mg/kg/injection, schedule: Q01DX005 (ip), vehicle: water 97 % of control | endpoint: mean survival time, dose: 200.0 mg/kg/injection, schedule: Q01DX005 (ip), vehicle: water 92 % of control

C=CC(O)Cc1ccccc1 (stereo unspecified) (tested in a mixture with another compound)
inactive: endpoint: mean survival time, dose: 75.0 mg/kg/injection, schedule: Q01DX009 (ip), vehicle: saline 98 % of control | endpoint: mean survival time, dose: 150.0 mg/kg/injection, schedule: Q01DX009 (ip), vehicle: saline 101 % of control | endpoint: mean survival time, dose: 300.0 mg/kg/injection, schedule: Q01DX009 (ip), vehicle: saline 107 % of control

CS(=N)(=O)c1ccccc1 (stereo unspecified)
inactive: [7] 105 % of control | [8] 103 % of control | [9] 94 % of control

O=C(Nc1cccc(C(F)(F)F)c1)c1cccc(Cl)c1
inactive: endpoint: mean survival time, dose: 100.0 mg/kg/injection, schedule: Q01DX009 (ip), vehicle: saline + alcohol 94 % of control | endpoint: mean survival time, dose: 100.0 mg/kg/injection, schedule: Q04DX003 (ip), vehicle: saline + alcohol 95 % of control | endpoint: mean survival time, dose: 200.0 mg/kg/injection, schedule: Q01DX009 (ip), vehicle: saline + alcohol 94 % of control | endpoint: mean survival time, dose: 200.0 mg/kg/injection, schedule: Q04DX003 (ip), vehicle: saline + alcohol 97 % of control | endpoint: mean survival time, dose: 400.0 mg/kg/injection, schedule: Q01DX009 (ip), vehicle: saline + alcohol 98 % of control | endpoint: mean survival time, dose: 400.0 mg/kg/injection, schedule: Q04DX003 (ip), vehicle: saline + alcohol 101 % of control

NS(=O)(=O)c1ccc(NC2OCC(O)C(O)C2O)cc1 (stereo unspecified)
inactive: endpoint: mean survival time, dose: 100.0 mg/kg/injection, schedule: Q01DX009 (ip), vehicle: saline 103 % of control | [4] 93 % of control | endpoint: mean survival time, dose: 200.0 mg/kg/injection, schedule: Q01DX009 (ip), vehicle: saline 104 % of control | [5] 98 % of control | endpoint: mean survival time, dose: 400.0 mg/kg/injection, schedule: Q01DX009 (ip), vehicle: saline 103 % of control | [6] 101 % of control

Nc1ccc(CNc2ccccc2)cc1
inactive: endpoint: mean survival time, dose: 100.0 mg/kg/injection, schedule: Q04DX002 (ip), vehicle: other 95 % of control and 103 % of control | endpoint: mean survival time, dose: 200.0 mg/kg/injection, schedule: Q04DX002 (ip), vehicle: other 100 % of control and 106 % of control | endpoint: mean survival time, dose: 400.0 mg/kg/injection, schedule: Q04DX002 (ip), vehicle: other 118 % of control and 91 % of control

COc1ccc(O)cc1
inactive: endpoint: median survival time, dose: 12.5 mg/kg/injection, schedule: Q01DX005 (ip), vehicle: saline with Tween-80 98 % of control | endpoint: median survival time, dose: 25.0 mg/kg/injection, schedule: Q01DX005 (ip), vehicle: saline with Tween-80 98 % of control | endpoint: median survival time, dose: 50.0 mg/kg/injection, schedule: Q01DX005 (ip), vehicle: saline with Tween-80 95 % of control | endpoint: median survival time, dose: 100.0 mg/kg/injection, schedule: Q01DX005 (ip), vehicle: saline with Tween-80 103 % of control | endpoint: median survival time, dose: 200.0 mg/kg/injection, schedule: Q01DX005 (ip), vehicle: saline with Tween-80 116 % of control

CCOC(=O)CNC(=O)Oc1ccc(C=O)cc1OC
inactive: [13] 100 % of control | [14] 101 % of control | [1] 90 % of control

C#CCOCCC(=O)O
inactive: endpoint: mean survival time, dose: 50.0 mg/kg/injection, schedule: Q01DX009 (ip), vehicle: acetone 102 % of control | endpoint: mean survival time, dose: 100.0 mg/kg/injection, schedule: Q01DX009 (ip), vehicle: acetone 100 % of control | endpoint: mean survival time, dose: 200.0 mg/kg/injection, schedule: Q01DX009 (ip), vehicle: acetone 97 % of control

CC(=O)OCC1OC(OC2C(COC(C)=O)OC(Sc3ccc(C)cc3)C(OC(C)=O)C2OC(C)=O)C(OC(C)=O)C(OC(C)=O)C1OC(C)=O (stereo unspecified)
inactive: [4] 97 % of control | [5] 91 % of control | [6] 94 % of control

CN(C)c1ccc(/C=N/NC(=O)NN)cc1
inactive: endpoint: mean survival time, dose: 12.5 mg/kg/injection, schedule: Q01DX009 (ip), vehicle: saline with Tween-80 98 % of control | endpoint: mean survival time, dose: 12.5 mg/kg/injection, schedule: Q04DX003 (ip), vehicle: saline with Tween-80 98 % of control | [13] 100 % of control | endpoint: mean survival time, dose: 25.0 mg/kg/injection, schedule: Q04DX003 (ip), vehicle: saline with Tween-80 98 % of control | [14] 98 % of control | endpoint: mean survival time, dose: 50.0 mg/kg/injection, schedule: Q04DX003 (ip), vehicle: saline with Tween-80 104 % of control

CC1(CBr)Oc2ccccc2O1
inactive: [10] 97 % of control | [11] 88 % of control | [12] 94 % of control

C1CC2OC2CCC2OC12 (stereo unspecified)
inactive: endpoint: mean survival time, dose: 100.0 mg/kg/injection, schedule: Q01DX009 (ip), vehicle: saline sonified 103 % of control | [4] 100 % of control | endpoint: mean survival time, dose: 200.0 mg/kg/injection, schedule: Q01DX009 (ip), vehicle: saline sonified 104 % of control | [5] 97 % of control | endpoint: mean survival time, dose: 400.0 mg/kg/injection, schedule: Q01DX009 (ip), vehicle: saline sonified 104 % of control | [6] 103 % of control

— PubChem BioAssay AID256 (DTP/NCI, 2004)
